Measurements: article PMC7991740, “Introduction of Non-natural Amino Acids Into T-Cell Epitopes to Mitigate Peptide-Specific T-Cell Responses” (Frontiers in Immunology, 2021)
*1 amine or outer side, *2 acyl side, *3 side chain or, on linkers, in order; H or OH if unused. Where a SMILES comes first, the peptide text is derived from it. [ ]: non-standard residue; d: D form. X1 = NCCCC[C@@H](C(=O)[*:2])N(C[C@@H]1CCCN1)[*:1]

Experiments:
Assay in all cases: biochemical
Type in all cases: binding
[1] = target: HLA-DRB1*07:01 (Homo sapiens, UniProt P01903+P01911, A100R/A102G/A103Q/D57E/D86V/E43K/F76Y/K127E/L162R/M171V/P40G/Q125H/Q99D/R33Q/R42Y/R54Q/S133A/S66F/T210M/V115G/Y107V/Y59L/Y89S); conditions: […]; mean of at least two independent experiments; read-out: IC50 DRB1*0701 (converted)
[2] = target: HLA-DRB1*11:01 (Homo sapiens, UniProt P01903+P01911, A100R/A169T/A87E/I96F/K41T/L162R/M171V/P40S/Q125H/Q178H/Q39Y/Q99D/R42S/S66Y/T262R/V115G/W38E); conditions: […]; mean of at least two independent experiments; read-out: IC50 DRB1*1101 (converted)
Chain of HLA-DRB1*11:01 (P01903 26-254 limits assumed, other chains not shown): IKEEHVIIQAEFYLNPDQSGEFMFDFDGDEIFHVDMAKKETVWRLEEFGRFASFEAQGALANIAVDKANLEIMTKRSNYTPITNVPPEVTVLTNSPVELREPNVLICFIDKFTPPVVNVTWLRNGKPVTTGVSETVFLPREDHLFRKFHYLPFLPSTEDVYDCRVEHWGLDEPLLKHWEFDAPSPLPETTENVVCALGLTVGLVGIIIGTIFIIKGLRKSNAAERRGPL

[3] = target: T1, HLA-DRB1*04:01 (Homo sapiens, UniProt P01903+P01911, A100K/A169T/F76Y/I96L/K127E/L162R/M171V/N62H/P40V/Q125Y/R42H/S133A/S149N/S66Y/V115G/V209L/W38E); conditions: […]; mean of at least two independent experiments; read-out: IC50 DRB1*0401
T1 construct: Human leukocyte antigen-DR molecules were immunopurified from homozygous EBV B lymphoblastoid cells; endogenous in cells

[4] = target: T2, HLA-DRB5*01:01 (Homo sapiens, UniProt P01903+Q30154); conditions: […]; mean of at least two independent experiments; read-out: IC50 DRB5*0101
T2 construct: Human leukocyte antigen-DR molecules were immunopurified from homozygous EBV B lymphoblastoid cells; endogenous in cells

[5] = target: T3, HLA-DRB1*01:01 (Homo sapiens, UniProt P01903+P01911, A100R/D57E/F55L/F60I/F76Y/I96L/L162R/M171V/P40L/Q125E/R42F/V115G/Y59C); conditions: […]; mean of at least two independent experiments; read-out: IC50 DRB1*0101
T3 construct: Human leukocyte antigen-DR molecules were immunopurified from homozygous EBV B lymphoblastoid cells; endogenous in cells

Question: What does the source list for `CC(C)C[C@H](NC(=O)[C@H](CCCCN)NC(=O)[C@H](CC(C)C)NC(=O)[C@@H](NC(=O)[C@H](CC(N)=O)NC(=O)[C@H](CCC(N)=O)NC(=O)[C@H](CCCCN)NC(=O)[C@@H](NC(=O)[C@H](Cc1ccc(O)cc1)NC(=O)[C@H](CCCCN)NC[C@@H]1CCCN1)C(C)C)[C@@H](C)O)C(=O)N[C@@H](C)C(=O)N[C@H](C(=O)O)[C@@H](C)O` [Rd1] (H-[X1]YVKQNTLKLAT-OH; N-terminus and C-terminus assumed)?
Answer: IC50 [1]: 140 nM; IC50 [2]: 2500 nM; IC50 [3]: 25 nM; IC50 [4]: 120 nM; IC50 [5]: 2 nM
